Laboratory results taken from patent US20210368825A1, “FEED ADDITIVE FOR DAIRY CATTLE COMPRISING N-ACETYL-L-TRYPTOPHAN AS ACTIVE INGREDIENT” (CJ CHEILJEDANG CORPORATION, priority 2018, published 2021).
“And” between values parts separate entries of the source, which are not always exact repeats. Identical values can stand only once. “Also recorded” adds a separate entry of the source.

Key:
[1] = system: dry cows in the late stage of gestation; experiment: Analysis of feed intake of dairy cattle according to NALT feeding; format: in vivo, Holstein Friesian cows; details: for feed intake: basal diet supplemented with NALT (15 g/d)
Description: (§1) From among Holstein Friesian cows in the late stage of gestation corresponding to 60 days before calving, 8 cows were selected in consideration of calving time (expected calving date±15 days), the number of calving (calving number), and the like, and 4 cows were assigned to each of a control (untreated) and a treated group.
(§2) In the present disclosure, as a basal diet fed during a dry period and a milking period, total mixed ration (TMR), roughage, and concentrates were provided in accordance with NRC (2001) nutrition requirements for dry cows. In the case of the treated group, evaluation was performed by supplementing N-acetyl-L-tryptophan (NALT) to the basal diet. Newborn calves were fed with colostrum for 3 days and then fed with milk obtained during a milking process for 8 weeks.
(§3) Evaluation of feed feeding before calving by feeding N-acetyl-L-tryptophan was performed for 60±8 days (error caused by difference in expected calving dates). The control was fed with the basal diet, and the treated group was fed with the basal diet supplemented with 15 g of NALT.
An amount of the feed left over was recorded for each cow at 9 a.m. every morning to measure a daily feed intake.

[2] = system: calves born from dairy cattle; experiment: Analysis of weight of calf born from dairy cattle according to NALT feeding; format: in vivo, Holstein Friesian cows (calves); details: for weight of calf: mother fed NALT 15 g/d in dry period
Description: as §1, §2, §3
Weights of calves born from dairy cattle used for the experiment were measured after drying the body surface immediately after calving (before feeding colostrum; using a scale, GL-6000S Series, G-Tech International Co., LTD), and then weights were measured four times in total for 8 weeks at an interval of 2 weeks (weight before feeding milk). Colostrum was obtained from mother cows and fed to calves at 3 a.m. and 3 p.m. until 3 days after calving. Then, 3.8 L of milk was provided per day, and the concentrates were available without limitation from a feed bucket separately for individual animals.

[3] = system: dairy cattle in dry period; parameters: species or system Holstein Friesian cows; details: in vivo
Description: as §1, §2, §3
(§4) Blood was collected from dairy cattle and calves during 6 weeks of the dry period and immediately after calving via the jugular vein before feeding a morning feed every 2 weeks for 8 weeks. The collected blood was aliquoted into a serum tube (BD Vacutainer, Plymouth, UK) and a heparin tube (Becton-Dickinson, Belliver Industrial Estate, Plymouth, PL6 7BP, UK) and centrifuged (3,500 rpm, 15 min, 20° C.) to separate plasma.
(§5) Samples for analysis of metabolic changes such as albumin, glutamic-oxalacetic transaminase (GOT), blood urea nitrogen (BUN), triglycerides (TG), cholesterol (CHO), glucose (GLU), and non-esterified fatty acid (NEFA) were aliquoted into a 1.5 mL tube (Eppendorf AG, Hamburg, Germany) in an amount of 500 μL each and stored in a deep freezer at −80° C.

[4] = system: calves born from dairy cattle; experiment: Metabolic change of calves born from dairy cattle according to NALT feeding; format: in vivo, Holstein Friesian cows (calves)
Description: as §1, §2, §3, §4, §5

SMILES: CC(=O)N[C@@H](Cc1c[nH]c2ccccc12)C(=O)O [NALT, N-acetyl-L-tryptophan]
- overall feed intake compared with control ([1]; 6 weeks of dry period): numerical increase; also recorded: numerically increased
- feed intake ([1]; week 0 of dry period): 6.63 kg
- feed intake ([1]; week 1 of dry period): 6.85 kg
- feed intake compared with control ([1]; week 2, p<0.05): statistically significant increase
- feed intake ([1]; week 2 of dry period): 7.73 kg
- feed intake ([1]; week 3 of dry period): 7.62 kg
- increase in feed intake compared with control ([1]; week 4, control 6.46 kg): 1.43 kg
- feed intake ([1]; week 4 of dry period): 7.69 kg
- feed intake ([1]; week 5 of dry period): 7.63 kg
- weight of calf, Increment ([2]; 0 to 8 wk): 28.28 kg
- weight of calf ([2]; 0 wk (birth weight)): 41.43 kg
- weight of calf ([2]; 2 wk after birth): 46.05 kg
- weight of calf ([2]; 4 wk after birth): 52.75 kg
- weight of calf ([2]; 6 wk after birth): 60.95 kg
- weight of calf ([2]; 8 wk after birth): 69.70 kg
- weight of calf, total AVG ([2]; average 0 to 8 wk): 54.18 kg
- birth weight of calves greater than control ([2]; week 0, on average): 5.47 kg and 5.53 kg
- average weight of calves greater than control ([2]; week 2): 5.1 kg
- average weight of calves greater than control ([2]; week 4): 4.67 kg
- average weight of calves greater than control ([2]; week 6): 4.22 kg
- average weight of calves greater than control ([2]; week 8): 5.9 kg
- average weight of calves greater than control ([2]; weeks 2, 4, 6 and 8 overall): about 5 kg
- Albumin [3]: 3.93 g/dL
- Albumin, total AVG [3]: 3.74 g/dL
- BUN [3]: 12.25 mg/dL
- BUN, total AVG [3]: 9.88 mg/dL
- CHO [3]: 194.00 mg/dL
- CHO, total AVG [3]: 143.08 mg/dL
- GLU [3]: 50.00 mg/dL
- GLU, total AVG [3]: 50.52 mg/dL
- GOT [3]: 82.50 U/L
- GOT, total AVG [3]: 80.92 U/L
- TG [3]: 16.25 mg/dL
- TG, total AVG [3]: 19.88 mg/dL
- effect on metabolic changes of dairy cattle compared with control [3]: did not significantly affect
- glucose (Glu) index of newborn calves compared with control ([4]; calves of the NALT-treated group, 8 weeks after birth): statistically significant difference; also recorded: decreasing a blood glucose level
- Albumin ([4]; calves, 0 wk): 2.50 g/dL
- BUN ([4]; calves, 0 wk): 10.00 mg/dL
- CHO ([4]; calves, 0 wk): 33.00 mg/dL
- GLU ([4]; calves, 0 wk): 54.75 mg/dL
- GOT ([4]; calves, 0 wk): 47.25 U/L
- TG ([4]; calves, 0 wk): 14.50 mg/dL
- Albumin, total AVG ([4]; calves, average 0 to 8 weeks): 3.36 g/dL
- BUN, total AVG ([4]; calves, average 0 to 8 weeks): 11.30 mg/dL
- CHO, total AVG ([4]; calves, average 0 to 8 weeks): 109.30 mg/dL
- GOT, total AVG ([4]; calves, average 0 to 8 weeks): 62.55 U/L
- TG, total AVG ([4]; calves, average 0 to 8 weeks): 34.40 mg/dL
- GLU, total AVG ([4]; calves, average 0 to 8 weeks, P 0.015): 78.95 mg/dL
